Experimental findings from patent US20120156699A1, “Pathogenic TH17 Cells; related reagents and methods” (Schering Corporation, priority 2007, published 2012) are described below.

One assay deals with IL-23R. As to the kind of experiment: IL-23R expression in naïve human CD4+ T cells, flow cytometry. In kind it is cell-based. The note with it: 10 μM PGE2, 10 μM butaprost, 35 μM misoprostol, 10 μM sulprostone; restimulated 48 hours; FIGS. 4A, 4B. How it is done:
FIGS. 4A and 4B present results obtained in experiments in which naïve human CD4^+ T cells are activated with T cell activation beads and cultured in the presence or absence of PGE2 or specific EP receptors agonists.
(§1) Methods used in this example are generally as described at Wilson et al. (2007) Nature Immunology 8:950. More specifically, cell culture is performed as follows. Naïve CD4^+ CD45RO^− T cells are isolated and cultured as described previously (Wilson et al. (2007), supra). Memory CD4^+ CD45RA^− T cells are isolated using the memory T cell isolation kit, human (Miltenyi, Auburn, Calif.), according to the manufacturer's instructions. Where indicated, 50 ng/ml hIL-23, 50 ng/ml hIL-1β (R&D Systems, Minneapolis, Minn.), 10 μM PGE2 (Sigma, St. Louis, Mo.), 10 μM butaprost (EP2 selective agonist), 35 μM misoprostol (EP4, EP3>EP1>EP2 agonist), and/or 10 μM sulprostone (EP1, EP3 agonist, Cayman Chemical, Ann Arbor, Mich.) are added.
For analysis of cell surface proteins, cells are stained with anti-CD4, anti-CD3, anti-CD45RA, anti-CCR6 (BD Biosciences), and/or anti-IL-23R (R&D Systems) antibodies. Data are acquired on a LSR II cytometer and analyzed with FlowJo software (Tree Star, Ashland, Oreg.).
Further experiments are performed to determine the effect of PGE2, or agonists thereof, on the expression of IL-23R in naïve human CD4^+ T cells in culture. […]

The next assay relates to IL-1R1. The assay is described as follows: IL-1R1 gene expression in response to PGE2. The class given is cell-based, human. The settings on record: data not shown. As for the experimental part:
(§2) Real-time quantitative PCR is performed as described previously (Wilson et al. (2007), supra).
Further experiments are performed to determine the effect of PGE2, or agonists thereof, on the expression of IL-23R in naïve human CD4^+ T cells in culture. […] In addition, IL-1R1 gene expression is increased in response to PGE2 (data not shown).

Assay [1] concerns human memory CD4+ T cells. The assay is described as follows: Cytokine production and gene expression in activated human memory CD4+ T cells. In kind it is cell-based. How it is done: FIGS. 7A and 7B present results obtained with human memory CD4^+ T cells activated and cultured for three days in the presence of IL-23, IL-1β, and/or PGE2. […] Results from nine independent donors are shown. […] Results from four different donors are shown. Horizontal lines represent medians.
as §1
ELISA and electrochemiluminescence assays are performed as described previously (Wilson et al. (2007), supra). IL-10 ELISA is performed using a kit from R&D Systems.
as §2
Intervention with therapeutic agents, such as antagonists of the inflammatory cytokines and non-cytokine immunomodulators, might therefore be expected to be beneficial when administered both systemically and also when administered locally at (or near) the site of inflammation.

The next assay deals with naïve human CD4+ T cells. The assay is described as follows: Cytokine expression by naïve human CD4+ T cells cultured with IL-1β and IL-23, with or without PGE2 or EP receptor agonists. In kind it is cell-based. The note with it: together with IL-1β and IL-23. How it is done:
FIGS. 5A, 5B and 5C present results obtained in naïve human CD4^+ T cells activated with T cell activation beads and cultured in the presence or absence of IL-23 and IL-1β, with or without PGE2 or the EP receptors agonists butaprost, misoprostol, and sulprostone. Data in FIGS. 5A-5C reflect IL-17A, IFN-γ and IL-10 production in cell-free supernatants of T cells restimulated for 48 hours, respectively. Results in each figure are representative of two independent experiments.
as §1
ELISA and electrochemiluminescence assays are performed as described previously (Wilson et al. (2007), supra). IL-10 ELISA is performed using a kit from R&D Systems. […]

Another assay deals with CCR6. The assay is described as follows: CCR6 expression in naïve human CD4+ T cells, flow cytometry. The settings on record: PGE2 added to IL-1β and IL-23; FIG. 6A. The class given is cell-based. How it is done: FIGS. 6A, 6B and 6C present results obtained with naïve human CD4^+ T cells cultured as described with reference to FIGS. 5A-5C. […] Results represent mean±s.e.m. of nine independent experiments. For data presented in FIGS. 6B and 6C, naïve T cells are cultured in the presence of IL-1β, IL-23, and PGE2. After reactivation, CD4^+ CCR6^+ and CD4^+CCR6^− T cells are sorted and cultured for seven days in the presence of IL-2. […] Results in each of FIGS. 6B and 6C reflect the results of four independent experiments.
Methods used in this example are generally as described at Wilson et al. (2007) Nature Immunology 8:950. More specifically, cell culture is performed as follows. Naïve CD4^+ CD45RO^− T cells are isolated and cultured as described previously (Wilson et al. (2007), supra). Memory CD4^+ CD45RA^− T cells are isolated using the memory T cell isolation kit, human (Miltenyi, Auburn, Calif.), according to the manufacturer's instructions. […]
For analysis of cell surface proteins, cells are stained with anti-CD4, anti-CD3, anti-CD45RA, anti-CCR6 (BD Biosciences), and/or anti-IL-23R (R&D Systems) antibodies. Data are acquired on a LSR II cytometer and analyzed with FlowJo software (Tree Star, Ashland, Oreg.). […]

In another assay the test system is PBMC CD161+ Thmem cells. The assay is described as follows: IL-17 production by PBMC CD161+ Thmem cells from CD patients cultured with IL-23. The class given is cell-based, human. As for the experimental part: (§3) Colon and peripheral blood (PB) samples are obtained from Crohn's Disease patients. Lamina propria mononuclear cells (LPMC) are prepared from colon samples by dissociation of the epithelial layer of the mucosa, collagenase digestion of the lamina propria, and density gradient centrifugation. Peripheral blood mononuclear cells (PBMC) are isolated from PB by density gradient centrifugation and lysis of red blood cells.
This Th17 phenotype is increased in Crohn's disease patients.

Another assay concerns CD161+ Thmem cells. The assay is described as follows: IL-17 production by lamina propria CD161+ Thmem cells cultured with IL-23. The class given is cell-based, human. The note with it: CD161+ Thmem cells cultured in the presence of IL-23. As for the experimental part: as §3
Colon samples from CD patients contain approximately 20-fold more CD161^+ CD4^+ memory T cells, as determined by flow cytometry, than colon samples from normal subjects. FACS® flow cytometry purified lamina propria CD161^+ Thmem cells are found to produce 4 to 6-fold more IL-17 than CD161^− Thmem cells (as measured by ELISA) in both CD and normal samples.

Where [2] appears, read: memory T cells cultured three days, FIG. 7A.

On to `CCCCC[C@H](O)/C=C/[C@H]1[C@H](O)CC(=O)[C@@H]1C/C=C\CCCC(=O)O` [PGE2, prostaglandin E2], for which, in the assay on IL-23R, the “percentage of IL-23R expressing CD4+ T cells” value was “more than doubles”. For the same molecule, the IL-1R1 gene expression result with IL-1R1 is “increased”. Also, in assay [1] (setting [2]), the IFN-γ levels entry is given as “does not promote increased levels”, the IL-10 levels result is “does not promote increased levels” and the IL-17A levels entry is given as “promotes increased levels”. Further, the ROR-γt expression entry in assay [1] (real-time RT-PCR, FIG. 7B) was “promotes increased levels of the IL-17A and expression of ROR-γt”. Besides, the IL-10 expression entry in the assay on naïve human CD4+ T cells (FIG. 5C) is on record as “Downregulation”. Also, the “percentage of naïve human CD4+ T cells expressing CCR6” value with CCR6 is “increase in the percentage”.

With `CCCC1([C@H](O)C/C=C/[C@H]2[C@H](O)CC(=O)[C@@H]2CCCCCCC(=O)OC)CCC1` [butaprost], the “percentage of IL-23R expressing CD4+ T cells” value in the assay on IL-23R is given as “more than doubles”. Also, in the assay with naïve human CD4+ T cells (FIG. 5A), the IL-17 expression result was “somewhat greater increase in IL-17 expression than misoprostol”.

B1: IL-23: protein consisting of two polypeptide subunits, p19 and p40 (protein, UniProt Q9NPF7 20-189; P29460 23-328, looked up)
Interleukin-23 subunit alpha: RAVPGGSSPAWTQCQQLSQKLCTLAWSAHPLVGHMDLREEGDEETTNDVPHIQCGDGCDPQGLRDNSQFCLQRIHQGLIFYEKLLGSDIFTGEPSLLPDSPVGQLHASLLGLSQLLQPEGHHWETQQIPSLSPSQPWQRLLLRFKILRSLQAFVAVAARVFAHGAATLSP
Interleukin-12 subunit beta: IWELKKDVYVVELDWYPDAPGEMVVLTCDTPEEDGITWTLDQSSEVLGSGKTLTIQVKEFGDAGQYTCHKGGEVLSHSLLLLHKKEDGIWSTDILKDQKEPKNKTFLRCEAKNYSGRFTCWWLTTISTDLTFSVKSSRGSSDPQGVTCGAATLSAERVRGDNKEYEYSVECQEDSACPAAEESLPIEVMVDAVHKLKYENYTSSFFIRDIIKPDPPKNLQLKPLKNSRQVEVSWEYPDTWSTPHSYFSLTFCVQVQGKSKREKKDRVFTDKTSATVICRKNASISVRAQDRYYSSSWSEWASVPCS
Turning to B1, in the assay with PBMC CD161+ Thmem cells, the IL-17 production result is “increased IL-17 production”. In addition, the “enhancement of IL-17 production” value with CD161+ Thmem cells was “approximately 3 fold”.
